biological target: BTK (Homo sapiens (Human), UniProt Q06187); experiment: Btk kinase assay (HTRF); format: biochemical; conditions: [ATP]=80 μM, BTK=3.4 nM; read-out: BTK Inhibition
Summary of the method: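 BTK (3.4 nM) incubated 1 h with inhibitor, 80 μM ATP and 1 μM peptide substrate in 50 mM HEPES pH 7.0 with BSA and orthovanadate. Reaction stopped with EDTA plus Eu-antibody/XL665; HTRF 665/615 ratio read after 1 h, IC50 calculated relative to no-inhibitor and no-enzyme controls.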

Sequence of BTK (Q06187 whole entry, species assumed): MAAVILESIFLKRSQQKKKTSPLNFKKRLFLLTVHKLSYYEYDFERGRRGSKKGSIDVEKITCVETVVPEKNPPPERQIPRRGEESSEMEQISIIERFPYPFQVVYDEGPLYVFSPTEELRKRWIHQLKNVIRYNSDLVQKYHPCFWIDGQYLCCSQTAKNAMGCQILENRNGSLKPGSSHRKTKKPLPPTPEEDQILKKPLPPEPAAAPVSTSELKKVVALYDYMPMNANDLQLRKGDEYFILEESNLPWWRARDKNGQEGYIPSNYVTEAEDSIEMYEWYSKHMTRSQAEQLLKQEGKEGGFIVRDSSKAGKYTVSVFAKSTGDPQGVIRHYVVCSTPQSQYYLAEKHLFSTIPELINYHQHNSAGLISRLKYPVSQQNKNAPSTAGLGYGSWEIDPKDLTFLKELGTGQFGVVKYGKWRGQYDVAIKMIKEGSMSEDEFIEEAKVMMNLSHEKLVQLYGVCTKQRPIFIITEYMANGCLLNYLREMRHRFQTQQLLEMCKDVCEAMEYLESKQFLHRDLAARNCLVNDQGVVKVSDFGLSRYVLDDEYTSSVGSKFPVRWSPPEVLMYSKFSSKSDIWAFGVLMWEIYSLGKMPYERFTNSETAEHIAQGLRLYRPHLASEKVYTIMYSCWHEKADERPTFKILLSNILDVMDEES

Row | Compound | IC50 [nM]
1 | C=CC(=O)N1CC[C@@H](n2c(=O)n(-c3ccc(-c4ccc(OC)cc4F)cc3)c3cnccc32)C1 [Example 274] | 100 to 1000
2 | C=CC(=O)N1CC[C@@H](n2c(=O)n(-c3ccc(OCc4ccccc4)c(F)c3)c3cnccc32)C1 [Example 237, (R)-1-(1-acryloylpyrrolidin-3-yl)-3-(4-(benzyloxy)-3-fluorophenyl)-1,3-dihydro-2H-imidazo[4,5-c]pyridin-2-one] | 10 to 100
3 | C=CC(=O)N1CC[C@@H](n2c(=O)n(-c3ccc(Oc4cccc(OCC)c4)cc3)c3cnccc32)C1 [Example 24, (R)-1-(1-acryloylpyrrolidin-3-yl)-3-(4-(3-ethoxyphenoxy)phenyl)-1H-imidazo[4,5-c]pyridin-2(3H)-one] | 10 to 100
4 | C=CC(=O)N1CC[C@@H](n2c(=O)n(-c3ccc(Oc4ccccc4)cc3)c3c(C#N)nccc32)C1 [Example 65] | 1000 to 10000
5 | C=CC(=O)N1CC[C@@H](n2c(=O)n(-c3ccc(OCc4ccc(Cl)cc4F)cc3)c3cnccc32)C1 [Example 244, (R)-1-(1-acryloylpyrrolidin-3-yl)-3-(4-((4-chloro-2-fluorobenzyl)oxy)phenyl)-1H-imidazo[4,5-c]pyridin-2(3H)-one] | 100 to 1000
6 | C=CC(=O)N1CC[C@@H](n2c(=O)n(-c3ccc(Oc4cccc(C)c4)c(F)c3)c3cnccc32)C1 [Example 78, (R)-1-(1-acryloylpyrrolidin-3-yl)-3-(3-fluoro-4-(m-tolyloxy)phenyl)-1H-imidazo[4,5-c]pyridin-2(3H)-one] | 10 to 100
7 | C=CC(=O)N1CCC[C@@H](n2c(=O)n(-c3ccc(Oc4cccc(OC)c4F)cc3)c3cncc(OC)c32)C1 [Example 166, (R)-1-(1-acryloylpiperidin-3-yl)-3-(4-(2-fluoro-3-methoxyphenoxy)phenyl)-7-methoxy-1H-imidazo[4,5-c]pyridin-2(3H)-one] | ≤ 10
8 | C=CC(=O)N1CCC(n2c(=O)n(-c3ccc(Oc4cccc(OC)c4)c(C)c3)c3cnccc32)C1 (stereo not shown) [Example 92, 1-(1-acryloylpyrrolidin-3-yl)-3-(4-(3-methoxyphenoxy)-3-methylphenyl)-1,3-dihydro-2H-imidazo[4,5-c]pyridin-2-one] | 10 to 100
9 | O=C(O)C1CCCC(n2c(=O)n(-c3ccc(Oc4ccccc4)cc3)c3cnccc32)C1 (stereo not shown) [Example 193, 3-(2-oxo-3-(4-phenoxyphenyl)-2,3-dihydro-1H-imidazo[4,5-c]pyridin-1-yl)cyclohexanecarboxylic acid] | 1000 to 10000
10 | C=CC(=O)N1CC[C@@H](n2c(=O)n(-c3ccc(Oc4ccccc4)cc3)c3c(O)nccc32)C1 [Example 183, (R)-1-(1-acryloylpyrrolidin-3-yl)-4-hydroxy-3-(4-phenoxyphenyl)-1H-imidazo[4,5-c]pyridin-2(3H)-one] | ≥ 10000
11 | C=CC(=O)N1CC[C@@H](n2c(=O)n(-c3ccc(Oc4cccc(Cl)c4F)c(F)c3)c3cnccc32)C1 [Example 101, (R)-1-(1-acryloylpyrrolidin-3-yl)-3-(4-(3-chloro-2-fluorophenoxy)-3-fluorophenyl)-1,3-dihydro-2H-imidazo[4,5-c]pyridin-2-one] | 10 to 100
12 | C=CC(=O)N1CC[C@@H](n2c(=O)n(-c3ccc(C(=O)N4CCOCC4)cc3)c3cnccc32)C1 [Example 250, (R)-1-(1-acryloylpyrrolidin-3-yl)-3-(4-(morpholine-4-carbonyl)phenyl)-1H-imidazo[4,5-c]pyridin-2(3H)-one] | 1000 to 10000
13 | CC#CC(=O)N1CC[C@@H](n2c(=O)n(-c3ccc(Oc4cccc(OC)c4F)cc3)c3cncc(C)c32)C1 [Example 173, (R)-1-(1-(but-2-ynoyl)pyrrolidin-3-yl)-3-(4-(2-fluoro-3-methoxyphenoxy)phenyl)-7-methyl-1H-imidazo[4,5-c] pyridin-2(3H)-one] | 10 to 100
14 | C=CC(=O)N1CCC[C@@H](n2c(=O)n(-c3ccc(Oc4cccc(OC(C)C)c4)cc3)c3cnccc32)C1 [Example 14, (R)-1-(1-acryloylpiperidin-3-yl)-3-(4-(3-isopropoxyphenoxy)phenyl)-1H-imidazo[4,5-c]pyridin-2(3H)-one] | 10 to 100
15 | C=CC(=O)N1CC[C@@H](n2c(=O)n(-c3ccc(Oc4ccccc4)cc3)c3cncc(C#N)c32)C1 [Example 181, (R)-1-(1-acryloylpyrrolidin-3-yl)-oxo-3-(4-phenoxyphenyl)-2,3-dihydro-1H-imidazo[4,5-c] pyridine-7-carbonitrile] | 10 to 100

Next, values leading:

Row | IC50 [nM] | Compound
16 | 10 to 100 | C=CC(=O)N1CC[C@@H](n2c(=O)n(-c3ccc(Oc4cccc(Cl)c4C)cc3)c3cnccc32)C1 [Example 139, (R)-1-(1-acryloylpyrrolidin-3-yl)-3-(4-(3-chloro-2-methylphenoxy)phenyl)-1H-imidazo[4,5-c]pyridin-2(3H)-one]
17 | 100 to 1000 | C=CC(=O)Nc1cccc(-n2c(=O)n(-c3ccc(Oc4cccc(OC)c4)c(Cl)c3)c3cnccc32)c1 [Example 86, N-(3-(3-(3-chloro-4-(3-methoxyphenoxy)phenyl)-2-oxo-2,3-dihydro-1H-imidazo[4,5-c]pyridin-1-yl)phenyl)acrylamide]
18 | 100 to 1000 | C=C(C)C(=O)Nc1cccc(-n2c(=O)n(-c3ccc(Oc4ccccc4)cc3)c3cnccc32)c1 [Example 110, N-(3-(2-oxo-3-(4-phenoxyphenyl)-2,3-dihydro-1H-imidazo[4,5-c]pyridin-1-yl)phenyl)methacrylamide]
19 | 10 to 100 | C=CC(=O)Nc1cccc(-n2c(=O)n(-c3ccc(Oc4cccc(F)c4)c(F)c3)c3cnccc32)c1 [Example 90, N-(3-(3-(3-fluoro-4-(3-fluorophenoxy)phenyl)-2-oxo-2,3-dihydro-1H-imidazo[4,5-c]pyridin-1-yl)phenyl)acrylamide]
20 | 10 to 100 | C=CC(=O)N1CC[C@@H](n2c(=O)n(-c3ccc(Oc4cccc(C)c4)c(Cl)c3)c3cnccc32)C1 [Example 19, (R)-1-(1-acryloylpyrrolidin-3-yl)-3-(3-chloro-4-(m-tolyloxy)phenyl)-1H-imidazo[4,5-c]pyridin-2(3H)-one]
21 | 10 to 100 | C=CC(=O)Nc1cccc(-n2c(=O)n(-c3cccc(Oc4cccc(Cl)c4)c3)c3cnccc32)c1 [Example 74, N-(3-(3-(3-(3-chlorophenoxy)phenyl)-2-oxo-2,3-dihydro-1H-imidazo[4,5-c]pyridin-1-yl)phenyl)acrylamide]
22 | 100 to 1000 | C=CC(=O)Nc1cccc(-n2c(=O)n(-c3ccc(OCc4ccc(F)cc4F)cc3)c3cnccc32)c1 [Example 248, N-(3-(3-(4-((2,4-difluorobenzyl)oxy)phenyl)-2-oxo-2,3-dihydro-1H-imidazo[4,5-c]pyridin-1-yl)phenyl)acrylamide]
23 | 1000 to 10000 | C=CC(=O)Nc1cccc(-n2c(=O)n(-c3ccc(C(=O)Nc4ccccc4)cc3)c3cnccc32)c1 [Example 254, 4-(1-(3-acrylamidophenyl)-2-oxo-1H-imidazo[4,5-c]pyridin-3(2H)-yl)-N-phenylbenzamide]
24 | ≥ 10000 | C=CC(=O)Nc1cccc(-n2c(=O)n(-c3ccc(-c4cccc(C)c4)cc3)c3cnccc32)c1 [Example 270, N-(3-(3-(3′-methyl-[1,1′-biphenyl]-4-yl)-2-oxo-2,3-dihydro-1H-imidazo[4,5-c]pyridin-1-yl)phenyl)acrylamide]
25 | 100 to 1000 | C=CC(=O)Nc1cccc(-n2c(=O)n(-c3ccc(OCc4ccccn4)cc3)c3cnccc32)c1 [Example 196, N-(3-(2-oxo-3-(4-(pyridin-2-ylmethoxy)phenyl)-2,3-dihydro-1H-imidazo[4,5-c]pyridin-1-yl)phenyl)acrylamide]
26 | 10 to 100 | C=CC(=O)Nc1cccc(-n2c(=O)n(-c3ccc(Oc4cccc(C)c4C)c(Cl)c3)c3cnccc32)c1 [Example 148, N-(3-(3-(3-chloro-4-(2,3-dimethylphenoxy)phenyl)-2-oxo-2,3-dihydro-1H-imidazo[4,5-c]pyridin-1-yl)phenyl)acrylamide]
27 | 10 to 100 | C=CC(=O)Nc1cccc(-n2c(=O)n(-c3ccc(OCc4ccccc4C(F)(F)F)cc3)c3cnccc32)c1 [Example 232, N-(3-(2-oxo-3-(4-((2-(trifluoromethyl)benzyl)oxy)phenyl)-2,3-dihydro-1H-imidazo[4,5-c]pyridin-1-yl)phenyl)acrylamide]
28 | 100 to 1000 | C=CC(=O)Nc1cccc(-n2c(=O)n(-c3ccc(Oc4cc(F)cc(F)c4)cc3)c3cnccc32)c1 [Example 127, N-(3-(3-(4-(3,5-difluorophenoxy)phenyl)-2-oxo-2,3-dihydro-1H-imidazo[4,5-c]pyridin-1-yl)phenyl)acrylamide]
29 | 100 to 1000 | C=CC(=O)Nc1cccc(-n2c(=O)n(-c3ccc(OCc4ccccc4)c(Cl)c3)c3cnccc32)c1 [Example 224, N-(3-(3-(4-(benzyloxy)-3-chlorophenyl)-2-oxo-2,3-dihydro-1H-imidazo[4,5-c]pyridin-1-yl)phenyl)acrylamide]
30 | 100 to 1000 | C=CC(=O)N1CC[C@@H](n2c(=O)n(-c3ccc(Oc4ccc(F)cc4)cc3)c3cnccc32)C1 [Example 81, (R)-1-(1-acryloylpyrrolidin-3-yl)-3-(4-(4-fluorophenoxy)phenyl)-1H-imidazo[4,5-c]pyridin-2(3H)-one]
31 | 10 to 100 | C=CC(=O)Nc1cccc(-n2c(=O)n(-c3ccc(Oc4cccc(Cl)c4Cl)cc3)c3cnccc32)c1 [Example 98, N-(3-(3-(4-(2,3-dichlorophenoxy)phenyl)-2-oxo-2,3-dihydro-1H-imidazo[4,5-c]pyridin-1-yl)phenyl)acrylamide]
32 | 100 to 1000 | C=CC(=O)Nc1cccc(-n2c(=O)n(-c3ccc(Oc4ccccc4)cc3)c3ccncc32)c1 [Example 121, N-(3-(2-oxo-1-(4-phenoxyphenyl)-1H-imidazo[4,5-c]pyridin-3(2H)-yl)phenyl)acrylamide]
33 | 10 to 100 | C=CC(=O)N1CCC[C@@H](n2c(=O)n(-c3ccc(Oc4cccc(C)c4F)cc3)c3cnccc32)C1 [Example 141, (R)-1-(1-acryloylpiperidin-3-yl)-3-(4-(2-fluoro-3-methylphenoxy)phenyl)-1H-imidazo[4,5-c]pyridin-2(3H)-one]
34 | 100 to 1000 | C=CC(=O)N1CC[C@@H](n2c(=O)n(-c3ccc(Oc4cccc(F)c4OC)cc3)c3cnccc32)C1 [Example 137, (R)-1-(1-acryloylpyrrolidin-3-yl)-3-(4-(3-fluoro-2-methoxyphenoxy)phenyl)-1H-imidazo[4,5-c]pyridin-2(3H)-one]

Reference: patent US10358446B2, “Bruton's tyrosine kinase inhibitors” (Zibo Biopolar Changsheng Pharmaceutical Co. Ltd., priority 2015, dated 2019)
